Article PMC9395446, “First-in-human phase 1/1b study to evaluate sitravatinib in patients with advanced solid tumors” (Investigational New Drugs, 2022)

Test: Safety in phase 1/1b study (DLTs, TRAEs, TEAEs; CTCAE v4.03)
Type: in vivo, human
Conditions: 150 mg phase 1b
Text: Safety assessments included evaluation of DLTs, AEs, physical examinations, vital sign measurements, electrocardiogram recordings and laboratory tests.
A DLT was defined as a grade ≥ 4 hematologic abnormality lasting ≥ 4 days; grade 3 thrombocytopenia with clinically significant bleeding; febrile neutropenia; clinically significant grade ≥ 3 non-hematologic AEs not related to underlying malignancy; intolerable grade 2 AEs; or toxicity resulting in an inability to deliver 80% of the dose during the first treatment cycle.
The safety population included all patients who received ≥ 1 dose of sitravatinib. […] The PK evaluable population included all patients with sufficient concentration-time data for PK parameter evaluation. The modified intent-to-treat (mITT) population included all phase 1b patients who received ≥ 1 dose of study drug.

For `COCCNCc1ccc(-c2cc3nccc(Oc4ccc(NC(=O)C5(C(=O)Nc6ccc(F)cc6)CC5)cc4F)c3s2)nc1` [sitravatinib, Sitravatinib], the “ALT increased TRAE, any grade” value was 18 (18.2) n (%), the “ALT increased TRAE, grade ≥3” value was 2 (2.0) n (%) and the “AST increased TEAE, any grade” value was 26 (26.3) n (%). The “AST increased TEAE, grade ≥3” value was 3 (3.0) n (%), the “AST increased TRAE, any grade” value was 20 (20.2) n (%) and the “AST increased TRAE, grade ≥3” value was 2 (2.0) n (%). The “Abdominal pain TEAE, any grade” value was 26 (26.3) n (%), the “Abdominal pain TEAE, grade ≥3” value was 2 (2.0) n (%) and the “Abdominal pain TRAE, any grade” value was 14 (14.1) n (%). The “Abdominal pain TRAE, grade ≥3” value was 0 n (%), the “Anemia TEAE, any grade” value was 23 (23.2) n (%) and the “Anemia TEAE, grade ≥3” value was 8 (8.1) n (%). The “Any TEAE” value was 99 (100.0) n (%), the “Any TRAE” value was 92 (92.9) n (%) and the “Asthenia TEAE, any grade” value was 9 (9.1) n (%). For the same molecule, the “Asthenia TEAE, grade ≥3” value was 0 n (%), the “Back pain TEAE, any grade” value was 18 (18.2) n (%) and the “Back pain TEAE, grade ≥3” value was 3 (3.0) n (%). For the same molecule, the “Blood and lymphatic system disorders TEAE, any grade” value was 27 (27.3) n (%), the “Blood and lymphatic system disorders TEAE, grade ≥3” value was 11 (11.1) n (%) and the “Blood creatinine increased TEAE, any grade” value was 15 (15.2) n (%). The “Blood creatinine increased TEAE, grade ≥3” value was 0 n (%), the “Cardiac disorders TEAE, any grade” value was 15 (15.2) n (%) and the “Cardiac disorders TEAE, grade ≥3” value was 6 (6.1) n (%). The “Constipation TEAE, any grade” value was 40 (40.4) n (%), the “Constipation TEAE, grade ≥3” value was 0 n (%) and the “Constipation TRAE, any grade” value was 9 (9.1) n (%). The “Constipation TRAE, grade ≥3” value was 0 n (%), the “Cough TEAE, any grade” value was 15 (15.2) n (%) and the “Cough TEAE, grade ≥3” value was 0 n (%). For the same molecule, the “Decreased appetite TEAE, any grade” value was 38 (38.4) n (%), the “Decreased appetite TEAE, grade ≥3” value was 1 (1.0) n (%) and the “Decreased appetite TRAE, any grade” value was 27 (27.3) n (%). For the same molecule, the “Decreased appetite TRAE, grade ≥3” value was 1 (1.0) n (%), the “Dehydration TEAE, any grade” value was 23 (23.2) n (%) and the “Dehydration TEAE, grade ≥3” value was 4 (4.0) n (%). For the same molecule, the “Diarrhea TEAE, any grade” value was 67 (67.7) n (%), the “Diarrhea TEAE, grade ≥3” value was 18 (18.2) n (%) and the “Diarrhea TRAE, any grade” value was 59 (59.6) n (%). For the same molecule, the “Diarrhea TRAE, grade ≥3” value was 14 (14.1) n (%), the “Dizziness TEAE, any grade” value was 19 (19.2) n (%) and the “Dizziness TEAE, grade ≥3” value was 0 n (%). For the same molecule, the “Dizziness TRAE, any grade” value was 12 (12.1) n (%), the “Dizziness TRAE, grade ≥3” value was 0 n (%) and the “Dry mouth TEAE, any grade” value was 15 (15.2) n (%). For the same molecule, the “Dry mouth TEAE, grade ≥3” value was 0 n (%), the “Dry mouth TRAE, any grade” value was 10 (10.1) n (%) and the “Dry mouth TRAE, grade ≥3” value was 0 n (%). For the same molecule, the “Dysphonia TEAE, any grade” value was 26 (26.3) n (%), the “Dysphonia TEAE, grade ≥3” value was 0 n (%) and the “Dysphonia TRAE, any grade” value was 13 (13.1) n (%). For the same molecule, the “Dysphonia TRAE, grade ≥3” value was 0 n (%), the “Dyspnea TEAE, any grade” value was 19 (19.2) n (%) and the “Dyspnea TEAE, grade ≥3” value was 2 (2.0) n (%). For the same molecule, the “Edema peripheral TEAE, any grade” value was 16 (16.2) n (%), the “Edema peripheral TEAE, grade ≥3” value was 0 n (%) and the “Endocrine disorders TEAE, any grade” value was 27 (27.3) n (%). For the same molecule, the “Endocrine disorders TEAE, grade ≥3” value was 2 (2.0) n (%), the “Fatigue TEAE, any grade” value was 55 (55.6) n (%) and the “Fatigue TEAE, grade ≥3” value was 9 (9.1) n (%). The “Fatigue TRAE, any grade” value was 49 (49.5) n (%), the “Fatigue TRAE, grade ≥3” value was 7 (7.1) n (%) and the “Gastrointestinal disorders TEAE, any grade” value was 89 (89.9) n (%). For the same molecule, the “Gastrointestinal disorders TEAE, grade ≥3” value was 33 (33.3) n (%), the “General disorders and administration site conditions TEAE, any grade” value was 72 (72.7) n (%) and the “General disorders and administration site conditions TEAE, grade ≥3” value was 12 (12.1) n (%). The “Headache TEAE, any grade” value was 18 (18.2) n (%), the “Headache TEAE, grade ≥3” value was 1 (1.0) n (%) and the “Hypertension TEAE, any grade” value was 52 (52.5) n (%). For the same molecule, the “Hypertension TEAE, grade ≥3” value was 29 (29.3) n (%), the “Hypertension TRAE, any grade” value was 46 (46.5) n (%) and the “Hypertension TRAE, grade ≥3” value was 24 (24.2) n (%). The “Hypokalemia TEAE, any grade” value was 13 (13.1) n (%), the “Hypokalemia TEAE, grade ≥3” value was 3 (3.0) n (%) and the “Hypomagnesemia TEAE, any grade” value was 17 (17.2) n (%). The “Hypomagnesemia TEAE, grade ≥3” value was 0 n (%), the “Hyponatremia TEAE, any grade” value was 16 (16.2) n (%) and the “Hyponatremia TEAE, grade ≥3” value was 5 (5.1) n (%). The “Hypophosphatemia TEAE, any grade” value was 15 (15.2) n (%).
